Several values for one entry are separate records, joined by “and”; a condition that tells them apart may be missing. Equal entries are not always repeated. Entries after “also recorded” stand apart in the source; their conditions may differ. Where two headings read alike, the source gives them in different places.
Assays:
[1] = target: T1, recombinant α-synuclein fibrils (Homo sapiens, UniProt P37840); assay: photo-crosslinking of α-synuclein fibrils, digestion and LC-MS/MS; settings: UV irradiation, GluC or trypsin digest
Excerpt: To gain additional insight into the binding site of these molecules, a photoaffinity variant (TZ-CLX) was synthesized containing a diazirine as a photo-crosslinking motif. Closely resembling the 6-substituted lead compounds 7j and 8i, this compound covalently inserts into C-H bonds on nearby residues in the α-synuclein fibril binding site upon irradiation with ultraviolet (UV) light. Using established procedures, the crosslinked fibrils can then be disaggregated, digested using either GluC or trypsin, and analyzed via LC-MS/MS to ascertain residue-level binding information. […] Minor crosslinks were also identified in the N-terminal binding site, primarily via trypsin digestion and corresponding to the peptide EGVVAAAEK (residues 13–21, proximal to site 2, Figure 3). […]
Bottom-up LC-MS/MS Analysis. Peptide mixtures resulting from labeling and digestion were resolubilized in 25 µl of water with 0.1%TFA and analyzed by a Q-Exactive HF mass spectromet er (Thermo Fisher Scientific; Waltham, MA) coupled to a Dionex Ultimate 3000 UHPLC system (Thermo Fisher Scientific; Waltham, MA) equipped with an in- house made 15 ௗcm long fused silica capillary column (75 μm ID), packed with reversed phase Repro-Sil Pure C18-AQ 2.4 μm resin (Dr. Maisch GmbH, Ammerbuch, Germany). […]

[2] = target: T2, LBD-amplified fibrils (α-synuclein) (Homo sapiens, UniProt P37840); assay: homologous competitive binding assay of radiotracers, LBD-amplified fibrils
T2 construct: made in house
Procedure: (§1) The binding affinity determination (Kd) was performed using homologous competitive binding assays of radiotracers with recombinant α-synuclein fibrils, LBD-amplified fibrils, PD tissues, and AD brain tissue homogenates. The brain tissue from PD and AD cases was obtained from the Banner Sun Health Research Institute Brain and Body Donation Program of Sun City, Arizona.
(§2) These direct binding assays used a fixed concentration of either recombinant α-synuclein fibrils, LBD-amplified fibrils, PD, AD tissue, or a radioligand ([^11C]7f, [^18F]7j, [^11C]8i and [^125I]8i, [^3H]8i) and varying concentration ranges of the corresponding homologous non-radiolabeled standard reference compound. In brief, various concentrations of corresponding cold compounds were diluted in 30 mM of Tris-HCl at pH 7.4, with 0.1% BSA. The direct binding assay was carried out by mixing (1) recombinant α-synuclein fibrils, LBD-amplified fibrils, PD, or AD tissue; (2) a radioligand ([^11C]7f or [^18F]7j); and (3) various concentrations of corresponding cold compounds, with incubation at 37 °C for 1 h for [^18F]7j and 30 min for [^11C]7f. After incubation, the bound and free radioligands were separated via vacuum filtration through 1.0 µm glass fiber filters in 96-well filter plates (MilliporeSigma, Burlington, MA, USA), followed by three 200 µL washes with ice-cold assay buffer. The filters containing the bound ligand were mixed with 150 µL of Optiphase Supermix scintillation cocktail (PerkinElmer) and counted immediately. All data points were obtained in triplicate. The dissociation constant (Kd) and the maximal number of binding site (Bmax) values were determined by fitting the data to the following equation: bound = (Bmax × [radioligand])/([radioligand] + [unlabeled compound] + Kd) + bottom. This was achieving via non-linear regression using GraphPad Prism software (version 4.0), where (bottom) is the non-specific binding and the [radioligand], [unlabeled compound], and Kd are expressed in nM. The synthesis of the tested compounds is described in the Supporting Information. […]
(§3) c) Direct radioactive competitive binding assay of radiotracers [11C]7f, [ 18 F]7j, [ 11C]8i and [ 125 I]8i and [ 3H]8i Affinity determination (Kd) using direct radioactive competitive binding assay with recombinant α-synuclein fibrils, Banner PD tissues, AD brain tissue homogenates. Brain tissue from PD and AD cases was obtained from the Banner Sun Health Research Institute Brain and Body Donation Program of Sun City, Arizona. […]
(§4) These direct binding assays used a fixed concentration of either α-synuclein fibrils or AD tissue and the radioligand ([11C]7f, [ 18F]7j, [ 11C]8i and [ 125 I]8i, [ 3H]8i ) and varying concentration ranges of corresponding homologous non-radiolabeled standard reference compound. In brief, the standard homologous reference compound was diluted in 30 mM Tris-HCl pH 7.4, 0.1% BSA. Reactions were incubated at 37 °C for 1 h before quantifying bound radioligand.
(§5) Bound and free radioligands were separated by vacuum filtration through 1.0 µm glass fiber filters in 96-well filter plates (Millipore), followed by three 200 µL washes with ice-cold assay buffer. Filtrates containing the bound ligand were mixed with 150 µL of Optiphase Supermix scintillation cocktail (PerkinElmer) and counted immediately. All data points were performed in triplicate. The dissociation constant (Kd) and the maximal number of binding sites (Bmax) values were determined by fitting the data to the equation. […]

[3] = PET brain imaging studies in non-human primates; assay type: in vivo, cynomolgus macaques; settings: for blood–brain barrier penetration / brain washout kinetics: in words
Procedure: All animal experiments were conducted under a research protocol approved by the Washington University Institutional Animal Care and Use Committee (IACUC). The NHP study was conducted in the NHP microPET facility at the Washington University School of Medicine in St. Louis. Three adults male cynomolgus macaques (9.73 ± 0.71 kg) were used in this study. Each animal was fasted for 12 h prior to the PET scans. Anesthesia was induced with an intramuscular injection of ketamine (10–20 mg kg^−1) and glycopyrrolate (0.013–0.017 mg kg^−1) to reduce salivary gland and respiration secretions. The animal was intubated, and anesthesia was maintained at 40–50% N2O and 1.4–2.0% isoflurane/oxygen throughout the procedure. A percutaneous venous catheter was used for the radiotracer injection. During the PET scanning session, the head was positioned supine with the brain in the center of the field of view. The PET scans were performed with a microPET Focus 220 scanner (Concorde/CTI/Siemens Microsystems, Knoxville, TN, USA). A 10 min transmission scan was performed to check the positioning; once confirmed, a 45 min transmission scan was obtained for attenuation correction. Subsequently, a 2 h dynamic emission scan was acquired after the administration of 365.44 ± 26.69 MBq of [^11C]7f, [^11C]8i, or [^18F]7j via the venous catheter. The PET data were collected from 0 to 120 min with the following timeframes: 3 × 1 min, 4 × 2 min, 3 × 3 min, and […]. The PET images were reconstructed using a filtered back projection method into a volume size of 128 × 128 × 95 and a voxel size of 1.85 × 1.85 × 0.796 mm^3, with all corrections (scatter, decay, random, normalization, etc.) applied. The dynamic PET images were motion-corrected and then co-registered to previous acquired structural MPRAGE MR images. The INIA19 primate brain and atlas (https://www.nitrc.org/projects/inia19/, accessed on 2 August 2023) were then co-registered to the MR images, so as to obtain the regional time−activity curves (TACs) in the regions of interests (ROIs). The radioactivity uptake was normalized using the body weight and the injected dose to obtain the standardized uptake values (SUVs). A voxel-wise reference Logan plot was performed using the cerebellum as the reference region to obtain the distribution volume ratio (DVR), with a linear time range of 30 min to 120 min:(1) ∫0t Ctτdτ/Ctt=DVR∫0t Crτdτ/Ctt+β
Here, Cr(t) is the regional time activity curve (TAC) of the reference tissue, Ct(t) is the pixelwise time activity curves of the target tissue tracer concentration measured via PET, and DVR is the distribution volume ratio of the target to the reference tissue.
The image processing was performed using MIAKAT in MATLAB (R2023a, The MathWorks, Inc., Natick, MA, USA).

[4] = target: AD brain tissue homogenates; assay: homologous competitive binding assay of radiotracers, AD tissue; set-up: species or system human; settings: average, NB = no binding
Procedure: as §1
These direct binding assays used a fixed concentration of either recombinant α-synuclein fibrils, LBD-amplified fibrils, PD, AD tissue, or a radioligand ([^11C]7f, [^18F]7j, [^11C]8i and [^125I]8i, [^3H]8i) and varying concentration ranges of the corresponding homologous non-radiolabeled standard reference compound. […] The filters containing the bound ligand were mixed with 150 µL of Optiphase Supermix scintillation cocktail (PerkinElmer) and counted immediately. […] The dissociation constant (Kd) and the maximal number of binding site (Bmax) values were determined by fitting the data to the following equation: bound = (Bmax × [radioligand])/([radioligand] + [unlabeled compound] + Kd) + bottom. […]
Bound and free radioligands were separated by vacuum filtration through 1.0 µm glass fiber filters in 96-well filter plates (Millipore), followed by three 200 µL washes with ice-cold assay buffer. […] The dissociation constant (Kd) and the maximal number of binding sites (Bmax) values were determined by fitting the data to the equation. […]

[5] = target: T1, recombinant α-synuclein fibrils; assay: radioactive competitive binding assay with [^3H]BF2846 (Tables 1 and 2: or [^18F]7j with LBD-amplified fibrils); settings: running text b71; fibril type and assay not stated
[6] = target: T3, PD brain tissues (Homo sapiens, UniProt P37840); assay: homologous competitive binding assay of radiotracers, PD tissue; settings: for binding to PD tissues versus AD and control brain tissues: in words
T3 construct: The brain tissue from PD and AD cases was obtained from the Banner Sun Health Research Institute Brain and Body Donation Program; tissue Banner Sun Health Research Institute Brain and Body Donation Program; host or cells: human PD post mortem brain tissue
Procedure: as §1, §2, §3, §4
as §5, with “equation. Bound = (Bmax*[Radioligand])/([Radioligand] + [Unlabeled compound] + Kd) + Bottom by nonlinear regression using GraphPad Prism software (version 4.0), where (Bottom) is nonspecific binding and [Radioligand], [Unlabeled compound], and Kd is expressed in nM” for “equation.”
Production of [ 11C]CH3I followed the reported method. Briefly, [ 11C]CH3I was produced on-site from [ 11C]CO2 using a GE PETtrace MeI Microlab. Up to 1.4 Ci of [ 11C]carbon dioxide was produced from the JSW BC-16/8 cyclotron […]

[7] = Figure 5, single representative curve, read-out: Kd, LBD amplified fibrils, representative assay
[8] = homologous competitive binding, average values for 7f (n = 3) and 7j (n = 15), read-out: Kd, LBD-amplified fibrils
[9] = homologous competitive binding, average (n = 4 for 7j), NB = no binding, read-out: Kd, PD tissue

Row | SMILES | Kd [2, 7] [nM] | Kd [2, 8] | blood–brain barrier penetration [3] | brain washout kinetics [3] | time of peak brain uptake post-injection ([3]; n = 1 per tracer) [min] | Kd [6, 9] [nM] | binding to PD tissues versus AD and control brain tissues [6] | further results
1 | C#CCCC1(CCOc2ccc3nc(Nc4ccc(OC)nc4)ccc3c2)N=N1 [TZ-CLX, 6-(2-(3-(But-3-yn-1-yl)-3H-diazirin-3-yl)ethoxy)-N-(6-methoxypyridin-3-yl)quinolin-2-amine] | – | – | – | – | – | – | – | binding site on α-synuclein fibrils by photo-crosslinking [1]: significant selectivity for the C-terminal binding sites of α-synuclein fibrils
2 | [11CH3]Oc1ccc(Nc2ccc3cc(OC/C=C/I)ccc3n2)cn1 [[^11C]8i] | – | – | penetrated the BBB very well | slow | – | – | potent selectivity for PD brain tissues over AD and control tissues | Kd [5]: 5 nM; initial brain uptake, standardized uptake value (SUV) ([3]; 3 min post-injection, n = 1 per tracer): about 3 g/mL; brain uptake ratio from 3 min to 120 min ([3]; washout kinetics, n = 1): about 1.5
3 | COc1ccc(Nc2ccc3cc(OC/C=C/[125I])ccc3n2)cn1 [[^125I]8i] | – | 5 nM and 4.8 nM | – | – | – | 5 | selective for PD tissues versus AD or control tissues; also recorded: very potent for PD tissues but not for control and AD brain tissues | Bmax, high affinity binding site, PD tissues ([6]; two-site binding): 50 nM; Bmax, low affinity binding site, PD tissues ([6]; two-site binding): 12 µM; Kd ([6]; two-site binding, read-out: Kd, high affinity binding site, PD tissues): 0.61 nM

Continued, in another order:

Row | Kd [2, 7] [nM] | Kd [2, 8] | blood–brain barrier penetration [3] | brain washout kinetics [3] | time of peak brain uptake post-injection ([3]; n = 1 per tracer) [min] | Kd [6, 9] [nM] | SMILES | binding to PD tissues versus AD and control brain tissues [6] | further results
4 | 11 | 15.5 ± 4.8 nM | penetrated the BBB well | rapid washout from all brain regions | 3 | – | COc1ccc(Nc2ccc3cc(O[11CH3])ccc3n2)cn1 [[^11C]7f] | – | Kd [4]: 62.7 ± 68.8 nM
5 | 26 | 21 ± 8.7 nM | penetrated the BBB well | rapid washout from all brain regions | 3 | 19.5 ± 15.5 | COc1ccc(Nc2ccc3cc(OCC[18F])ccc3n2)cn1 [[^18F]7j] | – | Kd ([6]; Figure 5, single representative curve, read-out: Kd, PD tissue, representative assay): 3.6 nM; Kd, AD tissue [4]: no binding

From PMC12293736, “Discovery of N-(6-Methoxypyridin-3-yl)quinoline-2-amine Derivatives for Imaging Aggregated α-Synuclein in Parkinson’s Disease with Positron Emission Tomography” (Cells, 2025)
